Structures can show the parent of a compound that is named as a salt.
biological target: T1, PDE7 (type VII phosphodiesterase) (Homo sapiens, UniProt Q13946); experiment: PDE7 inhibiting activity (3H-cAMP hydrolysis, active fraction from MOLT-4 cells); format: biochemical; conditions: PDE7 fraction from MOLT-4 cells, 0.064 μM cAMP, 10 μM rolipram present, 2 hours at 25° C.; read-out: IC50 values for phosphodiesterase inhibiting activities (PDE7)
T1 construct: endogenous in cells; host or cells: MOLT-4 (ATCC CRL-1582), soluble fraction, HiTrapQ anion-exchange fraction
T1 sequence (Q13946 whole entry): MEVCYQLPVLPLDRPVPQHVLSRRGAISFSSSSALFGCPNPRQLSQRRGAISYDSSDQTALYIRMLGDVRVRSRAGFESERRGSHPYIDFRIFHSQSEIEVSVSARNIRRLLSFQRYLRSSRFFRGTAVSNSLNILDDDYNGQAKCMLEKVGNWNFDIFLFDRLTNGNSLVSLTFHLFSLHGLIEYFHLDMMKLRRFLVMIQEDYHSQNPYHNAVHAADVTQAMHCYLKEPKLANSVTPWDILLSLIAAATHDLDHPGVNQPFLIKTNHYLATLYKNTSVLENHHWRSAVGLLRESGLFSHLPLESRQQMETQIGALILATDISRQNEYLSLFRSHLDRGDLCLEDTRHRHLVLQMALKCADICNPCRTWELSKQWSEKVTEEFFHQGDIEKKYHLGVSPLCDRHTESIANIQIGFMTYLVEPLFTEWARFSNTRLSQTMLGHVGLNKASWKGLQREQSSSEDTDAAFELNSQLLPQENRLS
How it was run: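 PDE7 from MOLT-4 cell soluble fraction, HiTrapQ NaCl-gradient purified. Compounds reacted 2 h at 25° C in 20 mM tris-HCl pH 7.5, 1 mM MgCl2, 0.1 μCi 3H-cAMP (0.064 μM cAMP), 10 μM rolipram, 5′-nucleotidase; QAE-Sephadex-separated supernatant counted.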

| IC50 | Compound |
| --- | --- |
| ≤ 1 µM | CNC1CCN(S(=O)(=O)c2ccc(-c3nc4c(C)nn(C5CCCCC5)c4c(=O)[nH]3)c(OC)c2)CC1 [Example 222, 1-Cyclohexyl-5-(2-methoxy-4-{[4-(methylamino)-1-piperidinyl]sulfonyl}phenyl)-3-methyl-1,6-dihydro-7H-pyrazolo[4,3-d]pyrimidin-7-one] |
| ≤ 0.01 µM | COc1cc(NC2CCNCC2)ccc1-c1nc2c(C)nn(C3CCCCC3)c2c(=O)[nH]1 [Example 224, 1-Cyclohexyl-5-[2-methoxy-4-(4-piperidinylamino)phenyl]-3-methyl-1,6-dihydro-7H-pyrazolo[4,3-d]pyrimidin-7-one] |
| ≤ 1 µM | COc1cc(CCC(=O)O)ccc1-c1nc2c(C)nn(C3CCCCC3)c2c(=O)[nH]1 [Example 229, 3-[4-(1-Cyclohexyl-3-methyl-7-oxo-6,7-dihydro-1H-pyrazolo[4,3-d]pyrimidin-5-yl)-3-methoxyphenyl]propanic acid] |
| ≤ 1 µM | COc1cc(NC2CCN(C(C)=O)CC2)ccc1-c1nc2c(C)nn(C3CCCCC3)c2c(=O)[nH]1 [Example 231, 5-{4-[(1-Acetyl-4-piperidinyl)amino]-2-methoxyphenyl}-1-cyclohexyl-3-methyl-1,6-dihydro-7H-pyrazolo[4,3-d]pyrimidin-7-one] |
| ≤ 0.01 µM | COc1cc(NC2CCN(C)CC2)ccc1-c1nc2c(C)nn(C3CCCCC3)c2c(=O)[nH]1 [Example 232, 1-Cyclohexyl-5-{2-methoxy-4-[(1-methyl-4-piperidinyl)amino]phenyl}-3-methyl-1,6-dihydro-7H-pyrazolo[4,3-d]pyrimidin-7-one] |
| ≤ 1 µM | COc1cc(CN2CCN(C)CC2)ccc1-c1nc2c(C)nn(C3CCCCC3)c2c(=O)[nH]1 [Example 234, 1-Cyclohexyl-5-{2-methoxy-4-[(4-methyl-1-piperazinyl)methyl]phenyl}-3-methyl-1,6-dihydro-7H-pyrazolo[4,3-d]pyrimidin-7-one] |
| ≤ 1 µM | COc1cc(CN2CCOCC2)ccc1-c1nc2c(C)nn(C3CCCCC3)c2c(=O)[nH]1 [Example 235, 1-Cyclohexyl-5-[2-methoxy-4-(4-morpholinylmethyl)phenyl]-3-methyl-1,6-dihydro-7H-pyrazolo[4,3-d]pyrimidin-7-one] |
| ≤ 1 µM | COc1cc(CN2CCC(O)CC2)ccc1-c1nc2c(C)nn(C3CCCCC3)c2c(=O)[nH]1 [Example 236, 1-Cyclohexyl-5-{4-[(4-hydroxy-1-piperidinyl)methyl]-2-methoxyphenyl}-3-methyl-1,6-dihydro-7H-pyrazolo[4,3-d]pyrimidin-7-one] |
| ≤ 1 µM | COc1cc(CN2CCC(C(=O)O)CC2)ccc1-c1nc2c(C)nn(C3CCCCC3)c2c(=O)[nH]1 [Example 239, 1-[4-(1-Cyclohexyl-3-methyl-7-oxo-6,7-dihydro-1H-pyrazolo[4,3-d]pyrimidin-5-yl)-3-methoxybenzyl]-4-piperidinecarboxylic acid] |
| ≤ 1 µM | CNC1CCN(Cc2ccc(-c3nc4c(C)nn(C5CCCCC5)c4c(=O)[nH]3)c(OC)c2)CC1 [Example 241, 1-Cyclohexyl-5-(2-methoxy-4-{[4-(methylamino)-1-piperidinyl]methyl}phenyl)-3-methyl-1,6-dihydro-7H-pyrazolo[4,3-d]pyrimidin-7-one] |
| ≤ 1 µM | COc1cc(NC2CCOCC2)ccc1-c1nc2c(C)nn(C3CCCCC3)c2c(=O)[nH]1 [Example 242, 1-Cyclohexyl-5-[2-methoxy-4-(tetrahydro-2H-pyran-4-ylamino)phenyl]-3-methyl-1,6-dihydro-7H-pyrazolo[4,3-d]pyrimidin-7-one] |
| ≤ 1 µM | COc1cc(N2CCC(N(C)C)CC2)ccc1-c1nc2c(C)nn(C3CCCCC3)c2c(=O)[nH]1 [Example 245, 1-Cyclohexyl-5-{4-[4-(dimethylamino)-1-piperidinyl]-2-methoxyphenyl}-3-methyl-1,6-dihydro-7H-pyrazolo[4,3-d]pyrimidin-7-one] |
| ≤ 1 µM | COc1cc(N2CCC(N)CC2)ccc1-c1nc2c(C)nn(C3CCCCC3)c2c(=O)[nH]1 [Example 247, 5-[4-(4-Amino-1-piperidinyl)-2-methoxyphenyl]-1-cyclohexyl-3-methyl-1,6-dihydro-7H-pyrazolo[4,3-d]pyrimidin-7-one] |
| ≤ 1 µM | CCOc1cc(S(=O)(=O)N2CCC(O)CC2)ccc1-c1nc2c(C)nn(C3CCCCC3)c2c(=O)[nH]1 [Example 257, 1-Cyclohexyl-5-{2-ethoxy-4-[(4-hydroxy-1-piperidinyl)sulfonyl]phenyl}-3-methyl-1,6-dihydro-7H-pyrazolo[4,3-d]pyrimidin-7-one] |
| ≤ 1 µM | COc1cc(N2CCC(O)CC2)ccc1-c1nc2c(C)nn(C3CCCCC3)c2c(=O)[nH]1 [Example 258, 1-Cyclohexyl-5-[4-(4-hydroxy-1-piperidinyl)-2-methoxyphenyl]-3-methyl-1,6-dihydro-7H-pyrazolo[4,3-d]pyrimidin-7-one] |

Second part, the molecule before the results:

| Compound | IC50 |
| --- | --- |
| CNCCN(C)S(=O)(=O)c1ccc(-c2nc3c(C)nn(C4CCCCC4)c3c(=O)[nH]2)c(OC)c1 [Example 212, 4-(1-Cyclohexyl-3-methyl-7-oxo-6,7-dihydro-1H-pyrazolo[4,3-d]pyrimidin-5-yl)-3-methoxy-N-methyl-N-[2-(methylamino)ethyl]benzenesulfonamide] | ≤ 1 µM |
| COc1cc(S(=O)(=O)N(C)CCO)ccc1-c1nc2c(C)nn(C3CCCCC3)c2c(=O)[nH]1 [Example 213, 4-(1-Cyclohexyl-3-methyl-7-oxo-6,7-dihydro-1H-pyrazolo[4,3-d]pyrimidin-5-yl)-N-(2-hydroxyethyl)-3-methoxy-N-methylbenzenesulfonamide] | ≤ 1 µM |
| COc1cc(S(=O)(=O)N2CCN(C)CC2)ccc1-c1nc2c(C)nn(C3CCCCC3)c2c(=O)[nH]1 [Example 214, 1-Cyclohexyl-5-{2-methoxy-4-[(4-methyl-1-piperazinyl)sulfonyl]phenyl}-3-methyl-1,6-dihydro-7H-pyrazolo[4,3-d]pyrimidin-7-one] | ≤ 1 µM |
| CNCCCN(C)S(=O)(=O)c1ccc(-c2nc3c(C)nn(C4CCCCC4)c3c(=O)[nH]2)c(OC)c1 [Example 215, 4-(1-Cyclohexyl-3-methyl-7-oxo-6,7-dihydro-1H-pyrazolo[4,3-d]pyrimidin-5-yl)-3-methoxy-N-methyl-N-[3-(methylamino)propyl]benzenesulfonamide] | ≤ 1 µM |
| COc1cc(S(=O)(=O)N2CCN(CCO)CC2)ccc1-c1nc2c(C)nn(C3CCCCC3)c2c(=O)[nH]1 [Example 216, 1-Cyclohexyl-5-(4-{[4-(2-hydroxyethyl)-1-piperazinyl]sulfonyl}-2-methoxyphenyl)-3-methyl-1,6-dihydro-7H-pyrazolo[4,3-d]pyrimidin-7-one] | ≤ 1 µM |
| COc1cc(S(=O)(=O)N2CCNCC2)ccc1-c1nc2c(C)nn(C3CCCCC3)c2c(=O)[nH]1 [Example 217, 1-Cyclohexyl-5-[2-methoxy-4-(1-piperazinylsulfonyl)phenyl]-3-methyl-1,6-dihydro-7H-pyrazolo[4,3-d]pyrimidin-7-one] | ≤ 1 µM |
| CCN1CCN(S(=O)(=O)c2ccc(-c3nc4c(C)nn(C5CCCCC5)c4c(=O)[nH]3)c(OC)c2)CC1 [Example 218, 1-Cyclohexyl-5-{4-[(4-ethyl-1-piperazinyl)sulfonyl]-2-methoxyphenyl}-3-methyl-1,6-dihydro-7H-pyrazolo[4,3-d]pyrimidin-7-one] | ≤ 1 µM |
| COc1cc(S(=O)(=O)NC2CCNCC2)ccc1-c1nc2c(C)nn(C3CCCCC3)c2c(=O)[nH]1 [Example 220, 4-(1-Cyclohexyl-3-methyl-7-oxo-6,7-dihydro-1H-pyrazolo[4,3-d]pyrimidin-5-yl)-3-methoxy-N-(4-piperidinyl)benzenesulfonamide monohydrochloride] | ≤ 1 µM |
| COCCNc1ccc(-c2nc3c(C)nn(C4CCCCC4)c3c(=O)[nH]2)c(OC)c1 [Example 225, 1-Cyclohexyl-5-{2-methoxy-4-[(2-methoxyethyl)amino]phenyl}-3-methyl-1,6-dihydro-7H-pyrazolo[4,3-d]pyrimidin-7-one] | ≤ 0.01 µM |
| COc1cc(/C=C/C(=O)O)ccc1-c1nc2c(C)nn(C3CCCCC3)c2c(=O)[nH]1 [Example 227, (2E)-3-[4-(1-cyclohexyl-3-methyl-7-oxo-6,7-dihydro-1H-pyrazolo[4,3-d]pyrimidin-5-yl)-3-methoxyphenyl]-2-propenic acid] | ≤ 0.01 µM |
| COc1cc(NCCN(C)C)ccc1-c1nc2c(C)nn(C3CCCCC3)c2c(=O)[nH]1 [Example 230, 1-Cyclohexyl-5-(4-{[2-(dimethylamino)ethyl]amino}-2-methoxyphenyl)-3-methyl-1,6-dihydro-7H-pyrazolo[4,3-d]pyrimidin-7-one] | ≤ 0.01 µM |
| COCCNCc1ccc(-c2nc3c(C)nn(C4CCCCC4)c3c(=O)[nH]2)c(OC)c1 [Example 237, 1-Cyclohexyl-5-(2-methoxy-4-{[(2-methoxyethyl)amino]methyl}phenyl)-3-methyl-1,6-dihydro-7H-pyrazolo[4,3-d]pyrimidin-7-one] | ≤ 1 µM |
| CCOc1cc(N2CCC(N(C)C)CC2)ccc1-c1nc2c(C)nn(C3CCCCC3)c2c(=O)[nH]1 [Example 250, 1-Cyclohexyl-5-{4-[4-(dimethylamino)-1-piperidinyl]-2-ethoxyphenyl}-3-methyl-1,6-dihydro-7H-pyrazolo[4,3-d]pyrimidin-7-one] | ≤ 0.01 µM |
| CCNC1CCN(c2ccc(-c3nc4c(C)nn(C5CCCCC5)c4c(=O)[nH]3)c(OCC)c2)CC1 [Example 253, 1-Cyclohexyl-5-{2-ethoxy-4-[4-(ethylamino)-1-piperidinyl]phenyl}-3-methyl-1,6-dihydro-7H-pyrazolo[4,3-d]pyrimidin-7-one] | ≤ 1 µM |
| CCOc1cc(S(=O)(=O)N2CCCN(C)CC2)ccc1-c1nc2c(C)nn(C3CCCCC3)c2c(=O)[nH]1 [Example 256, 1-Cyclohexyl-5-{2-ethoxy-4-[(4-methyl-1,4-diazepan-1-yl)sulfonyl]phenyl}-3-methyl-1,6-dihydro-7H-pyrazolo[4,3-d]pyrimidin-7-one] | ≤ 1 µM |
